{"source": "ChEMBL document CHEMBL5500340", "about": "“Synthesis and biological activity of thiophene bioisosteres of natural styryl lactone goniofufurone and related compounds” (Eur J Med Chem, 2024)", "key": {"MCF7": {"test_system": "MCF7", "assay": "Antiproliferative activity against human MCF7 cells by MTT colorimetric assay", "format": "functional, cell-based"}, "MDA-MB-231": {"test_system": "MDA-MB-231", "assay": "Antiproliferative activity against human MDA-MB-231 cells by MTT colorimetric assay", "format": "functional, cell-based"}, "MRC5": {"test_system": "MRC5", "assay": "Antiproliferative activity against human MRC5 cells by MTT colorimetric assay", "format": "functional, cell-based"}, "Jurkat": {"test_system": "Jurkat", "assay": "Antiproliferative activity against human Jurkat cells by MTT colorimetric assay", "format": "functional, cell-based"}, "Raji [1]": {"test_system": "Raji", "assay": "Antiproliferative activity against human Raji cells by MTT colorimetric assay", "format": "functional, cell-based"}, "HL-60": {"test_system": "HL-60", "assay": "Antiproliferative activity against human HL-60 cells by MTT colorimetric assay", "format": "functional, cell-based"}, "HeLa": {"test_system": "HeLa", "assay": "Antiproliferative activity against human HeLa cells by MTT colorimetric assay", "format": "functional, cell-based"}, "A549 [2]": {"test_system": "A549", "assay": "Antiproliferative activity against human A549 cells by MTT colorimetric assay", "format": "functional, cell-based"}, "K562 [3]": {"test_system": "K562", "assay": "Antiproliferative activity against human K562 cells by MTT colorimetric assay", "format": "functional, cell-based"}, "K562 [4]": {"test_system": "K562", "assay": "Induction of apoptosis in human K562 cells assessed as morphological changes measured after 72 hrs relative to control", "format": "functional"}, "Cell membrane": {"test_system": "Cell membrane", "assay": "Induction of cell membrane damage in human K562 cells measured after 72 hrs by acridine orange and ethidium bromide staining based analysis relative to control", "format": "cell membranes"}, "K562 [5]": {"test_system": "K562", "assay": "Induction of cell cycle arrest in human K562 cells assessed as decrease in accumulation of cells at subG1 phase measured after 72 hrs by PI staining based flow cytometry analysis relative to control", "format": "functional", "set-up": "scale not given: the % may be the effect or the level left"}, "Raji [6]": {"test_system": "Raji", "assay": "Potency index, ratio of Doxorubicin IC50 to test compound IC50 for antiproliferative activity against human Raji cells by MTT colorimetric assay", "format": "functional"}, "A549 [7]": {"test_system": "A549", "assay": "Potency index, ratio of Doxorubicin IC50 to test compound IC50 for antiproliferative activity against human A549 cells by MTT colorimetric assay", "format": "functional"}, "K562 [8]": {"test_system": "K562", "assay": "Induction of cell cycle arrest in human K562 cells assessed as increase in accumulation of cells at G2/M phase measured after 72 hrs by PI staining based flow cytometry analysis relative to control", "format": "functional"}, "K562 [9]": {"test_system": "K562", "assay": "Induction of cell cycle arrest in human K562 cells assessed as decrease in accumulation of cells at S phase measured after 72 hrs by PI staining based flow cytometry analysis relative to control", "format": "functional", "set-up": "scale not given: the % may be the effect or the level left"}}, "note": "pIC50: −log10 of the molar value."}
{"compound": "O=C(/C=C/c1ccc(F)cc1)O[C@@H]1[C@H]2OC(=O)C[C@H]2O[C@@H]1[C@H](OC(=O)/C=C/c1ccc(F)cc1)c1cccs1", "values": [{"measurement": "pIC50", "setting": "MCF7", "value": 5.23}, {"measurement": "pIC50", "setting": "MDA-MB-231", "value": 5.02}, {"measurement": "pIC50", "setting": "MRC5", "value": "< 4.00"}, {"measurement": "pIC50", "setting": "Jurkat", "value": 4.97}, {"measurement": "pIC50", "setting": "Raji [1]", "value": 4.66}, {"measurement": "pIC50", "setting": "HL-60", "value": 4.83}, {"measurement": "pIC50", "setting": "HeLa", "value": 5.36}, {"measurement": "pIC50", "setting": "A549 [2]", "value": 5.03}, {"measurement": "pIC50", "setting": "K562 [3]", "value": 6.00}]}
{"compound": "CC1(C)O[C@H]2O[C@H]([C@H](O)c3cccs3)[C@H](O)[C@H]2O1", "values": [{"measurement": "pIC50", "setting": "MCF7", "value": 5.36}, {"measurement": "pIC50", "setting": "MDA-MB-231", "value": 5.09}, {"measurement": "pIC50", "setting": "MRC5", "value": "< 4.00"}, {"measurement": "pIC50", "setting": "Jurkat", "value": 5.97}, {"measurement": "pIC50", "setting": "Raji [1]", "value": 5.46}, {"measurement": "pIC50", "setting": "HL-60", "value": 5.98}, {"measurement": "pIC50", "setting": "HeLa", "value": 5.55}, {"measurement": "pIC50", "setting": "A549 [2]", "value": 5.14}, {"measurement": "pIC50", "setting": "K562 [3]", "value": 6.05}]}
{"compound": "O=C(/C=C/c1ccccc1)O[C@@H]1[C@H]2OC(=O)C[C@H]2O[C@@H]1[C@H](OC(=O)/C=C/c1ccccc1)c1cccs1", "values": [{"measurement": "pIC50", "setting": "MCF7", "value": 4.96}, {"measurement": "pIC50", "setting": "MDA-MB-231", "value": 4.91}, {"measurement": "pIC50", "setting": "MRC5", "value": "< 4.00"}, {"measurement": "pIC50", "setting": "Jurkat", "value": 4.99}, {"measurement": "pIC50", "setting": "Raji [1]", "value": 4.96}, {"measurement": "pIC50", "setting": "HL-60", "value": 4.74}, {"measurement": "pIC50", "setting": "HeLa", "value": 4.62}, {"measurement": "pIC50", "setting": "A549 [2]", "value": 4.45}, {"measurement": "pIC50", "setting": "K562 [3]", "value": 5.08}]}
{"compound": "O=C(/C=C/c1ccc(F)cc1)O[C@H](c1cccs1)[C@H]1O[C@@H]2CC(=O)O[C@@H]2[C@H]1O", "values": [{"measurement": "pIC50", "setting": "MCF7", "value": 4.98}, {"measurement": "pIC50", "setting": "MDA-MB-231", "value": 5.68}, {"measurement": "pIC50", "setting": "MRC5", "value": "< 4.00"}, {"measurement": "pIC50", "setting": "Jurkat", "value": 4.71}, {"measurement": "pIC50", "setting": "Raji [1]", "value": 4.62}, {"measurement": "pIC50", "setting": "HL-60", "value": 4.72}, {"measurement": "pIC50", "setting": "HeLa", "value": 5.33}, {"measurement": "pIC50", "setting": "A549 [2]", "value": 4.88}, {"measurement": "pIC50", "setting": "K562 [3]", "value": 5.18}]}
{"compound": "O=C(c1cccs1)[C@H]1OC(O)[C@H](O)[C@H]1O", "note": "(some centres undefined)", "values": [{"measurement": "pIC50", "setting": "MCF7", "value": 4.81}, {"measurement": "pIC50", "setting": "MDA-MB-231", "value": 4.79}, {"measurement": "pIC50", "setting": "MRC5", "value": "< 4.00"}, {"measurement": "pIC50", "setting": "Jurkat", "value": 4.47}, {"measurement": "pIC50", "setting": "Raji [1]", "value": 4.69}, {"measurement": "pIC50", "setting": "HL-60", "value": 5.09}, {"measurement": "pIC50", "setting": "HeLa", "value": 5.25}, {"measurement": "pIC50", "setting": "A549 [2]", "value": 5.25}, {"measurement": "pIC50", "setting": "K562 [3]", "value": 5.20}]}
{"compound": "O=C1C[C@H]2O[C@@H](C(=O)c3cccs3)[C@H](O)[C@H]2O1", "values": [{"measurement": "pIC50", "setting": "MCF7", "value": 5.99}, {"measurement": "pIC50", "setting": "MDA-MB-231", "value": 5.28}, {"measurement": "pIC50", "setting": "MRC5", "value": "< 4.00"}, {"measurement": "pIC50", "setting": "Jurkat", "value": 5.77}, {"measurement": "pIC50", "setting": "Raji [1]", "value": 5.27}, {"measurement": "pIC50", "setting": "HL-60", "value": 5.96}, {"measurement": "pIC50", "setting": "HeLa", "value": 5.41}, {"measurement": "pIC50", "setting": "A549 [2]", "value": 4.74}, {"measurement": "pIC50", "setting": "K562 [3]", "value": 5.57}]}
{"compound": "O=C1C[C@H]2O[C@H]([C@@H](O)c3cccs3)[C@H](O)[C@H]2O1", "values": [{"measurement": "pIC50", "setting": "MCF7", "value": 4.35}, {"measurement": "pIC50", "setting": "MDA-MB-231", "value": 4.01}, {"measurement": "pIC50", "setting": "MRC5", "value": 4.02}, {"measurement": "pIC50", "setting": "Jurkat", "value": 5.58}, {"measurement": "pIC50", "setting": "Raji [1]", "value": 4.82}, {"measurement": "pIC50", "setting": "HL-60", "value": 4.89}, {"measurement": "pIC50", "setting": "HeLa", "value": 5.21}, {"measurement": "pIC50", "setting": "A549 [2]", "value": 4.73}, {"measurement": "pIC50", "setting": "K562 [3]", "value": 5.24}]}
{"compound": "O=C1C[C@H]2O[C@H]([C@H](O)c3ccccc3)[C@H](O)[C@H]2O1", "values": [{"measurement": "pIC50", "setting": "MRC5", "value": "< 4.00"}, {"measurement": "pIC50", "setting": "HL-60", "value": "< 4.00"}, {"measurement": "Activity", "setting": "K562 [4]", "value": 145.1, "unit": "%"}, {"measurement": "Activity", "setting": "Cell membrane", "value": 31.5, "unit": "%"}]}
{"compound": "O=C1C[C@H]2O[C@H]([C@@H](O)c3ccccc3)[C@H](O)[C@H]2O1", "values": [{"measurement": "Activity", "setting": "K562 [5]", "value": ">55", "unit": "%"}, {"measurement": "Activity", "setting": "K562 [4]", "value": 254.2, "unit": "%"}, {"measurement": "Activity", "setting": "Cell membrane", "value": 57.3, "unit": "%"}]}
{"compound": "CC1(C)O[C@H]2O[C@H]([C@@H](O)c3cccs3)[C@H](O)[C@H]2O1", "values": [{"measurement": "pIC50", "setting": "MCF7", "value": 5.58}, {"measurement": "pIC50", "setting": "MDA-MB-231", "value": 4.94}, {"measurement": "Ratio IC50", "setting": "Raji [6]", "value": 2}, {"measurement": "pIC50", "setting": "MRC5", "value": "< 4.00"}, {"measurement": "pIC50", "setting": "Jurkat", "value": 5.36}, {"measurement": "pIC50", "setting": "Raji [1]", "value": 5.87}, {"measurement": "pIC50", "setting": "HL-60", "value": 5.07}, {"measurement": "pIC50", "setting": "HeLa", "value": 5.80}, {"measurement": "pIC50", "setting": "A549 [2]", "value": 5.18}, {"measurement": "pIC50", "setting": "K562 [3]", "value": 5.99}]}
{"compound": "O=C1C[C@H]2O[C@H]([C@H](O)c3cccs3)[C@H](O)[C@H]2O1", "values": [{"measurement": "Activity", "setting": "K562 [5]", "value": ">85", "unit": "%"}, {"measurement": "pIC50", "setting": "MCF7", "value": 5.47}, {"measurement": "pIC50", "setting": "MDA-MB-231", "value": 5.54}, {"measurement": "pIC50", "setting": "MRC5", "value": "< 4.00"}, {"measurement": "Ratio IC50", "setting": "A549 [7]", "value": 4}, {"measurement": "pIC50", "setting": "Jurkat", "value": 6.00}, {"measurement": "pIC50", "setting": "Raji [1]", "value": 5.22}, {"measurement": "pIC50", "setting": "HL-60", "value": 5.68}, {"measurement": "Activity", "setting": "K562 [4]", "value": 196.5, "unit": "%"}, {"measurement": "Activity", "setting": "K562 [8]", "value": 31.2, "unit": "%"}, {"measurement": "Activity", "setting": "Cell membrane", "value": 40.6, "unit": "%"}, {"measurement": "pIC50", "setting": "HeLa", "value": 6.96}, {"measurement": "pIC50", "setting": "A549 [2]", "value": 5.92}, {"measurement": "pIC50", "setting": "K562 [3]", "value": 7.52}, {"measurement": "Activity", "setting": "K562 [9]", "value": 24.2, "unit": "%"}]}
{"compound": "O=C1C[C@H]2O[C@H](C(=O)c3cccs3)[C@H](O)[C@H]2O1", "values": [{"measurement": "pIC50", "setting": "MCF7", "value": 4.63}, {"measurement": "pIC50", "setting": "MDA-MB-231", "value": 5.05}, {"measurement": "pIC50", "setting": "MRC5", "value": "< 4.00"}, {"measurement": "pIC50", "setting": "Jurkat", "value": 4.60}, {"measurement": "pIC50", "setting": "Raji [1]", "value": 4.94}, {"measurement": "pIC50", "setting": "HL-60", "value": 4.40}, {"measurement": "pIC50", "setting": "HeLa", "value": 4.91}, {"measurement": "pIC50", "setting": "A549 [2]", "value": 4.83}, {"measurement": "pIC50", "setting": "K562 [3]", "value": 4.74}]}
